Data taken from EP1762248A1, “Use of cobalt porphyrins in joint therapy with an immunosuppressant drug for treatment of transplant patients or autoimmune disorders” (CORIT Consorzio per la Ricerca sul, priority 2005, dated 2007).
Like-named read-outs stand apart in the source and are kept apart here.

How the values were obtained:
PAEC cells = assay: Proliferation of PAEC cells by CFSE labelling and cytofluorometric analysis; assay type: cell-based, Pig; conditions: CoPP alone, various concentrations; versus untreated PAEC controls (figure 1)
Source text: Two in vitro experimental models have been used.
CFSE is a non-fluorescent dye which diffuses passively into the cell cytoplasm. Once inside the cytoplasm, the dye is cleaved by intracellular esterases, thus becoming fluorescent. This binds strongly to cellular proteins and is retained during cellular development. At each cell division stage, CFSE is distributed evenly to daughter cells, with the result that each cellular generation will inherit half of the CFSE content. When analysed by cytofluorimetry, the sequential reduction of CFSE is visualised as distinct peaks corresponding to ever more decreasing fluorescence. PAEC proliferation has been evaluated as a proliferation index, calculated as the sum of the cells in all generations divided by the number of original parental cells (e.g. in the second generation, the parental cells would correspond to the total number of cells in the second generation divided by 2, in the third, divided by 4, because each will have given rise to 2^1, 2^2 cells and so on for each generation).

PBMCs [1] = assay: Proliferation of concanavalin A activated simian PBMCs by CFSE labelling; assay type: cell-based, primate; conditions: CoPP alone (CsA concentration 0), 96 hours (figure 2)
Source text: (§1) By means of staining with the DNA intercalator, PI, it has been possible to evaluate the apoptotic cells as a sub-diploid peak and the cells in the DNA synthesis and duplication stage (S+G2 stage) as peaks with a DNA content greater than or equal to the diploid content. The proliferation index of PBMCs has been evaluated by staining the cells with CFSE at the same time as stimulation.

PBMCs [2] = assay: Apoptosis analysis of simian PBMCs by PI staining (sub-diploid peak); assay type: cell-based, primate; conditions: CoPP alone; concanavalin A, 96 hours
Experimental: The pellet from each sample has been resuspended in 600 µl of PBS and subsequently, 1.4 ml of absolute ethanol has been added dropwise while shaking continuously. The samples have been left at -20°C overnight. Following fixation, the cells have been washed twice in PBS. The pellet has been resuspended in 500 µl of PI at a concentration of 50 µg/ml, to which 6.25 µl of Nonidet P40 and 8 µl of RNase A (1 mg/ml) have been added. The samples have been shaken vigorously and incubated for at least half an hour in the dark at room temperature. Following incubation, the samples have been analysed using a cytofluorimeter, for cell cycle analysis.
as §1
In order to study apoptosis, the percentage of cells in the sub-diploid stage has been quantified.

HO-1 = conditions: paec, 72 h
Source text: Equal amounts of protein of each sample have been loaded and separated by electrophoresis on a 12% polyacrylamide gel in the presence of SDS (SDS-PAGE) and then transferred onto a nitrocellulose membrane (Amersham-Pharmacia) by means of electroblotting. […] The specific band has been detected by adding a chemiluminescent substrate followed by exposure to photographic film (ECL-Amersham-Pharmacia). The relative amount of HO-1 protein, normalised to the actin content of each sample, has been determined with the use of a densitometer (Pharmacia).
Following stimulation, HO-1 expression has been assessed by Western Blotting and densitometric analysis of the bands obtained. HO-1 expression is reported as the ratio of the intensity of the bands with respect to the control (table 1). The amount of protein loaded is normalised for actin.

cobalt (III) protoporphyrin [CoPP]
proliferation index of PAECs (PAEC cells): increases the proliferation index in a dose dependent manner
concentration at which PBMC proliferation is inhibited (PBMCs [1]): > 25 µM
apoptosis (cells in the sub-diploid stage) (PBMCs [2]): up to 6%
HO-1 expression in PAECs as the ratio of band intensity with respect to the control and normalised for actin (R) (HO-1; 50 µM): 6.0
HO-1 expression in PAECs as the ratio of band intensity with respect to the control and normalised for actin (R) (HO-1; 100 µM): 4.6
